Consider four molecules from patent publication US20230105103A1, “THERAPEUTIC MOLECULES FOR COMBATING SEPSIS” (CENTRE FOR CELLULAR AND MOLECULAR PLATFORMS, priority 2019, published 2023).

Assay [1] has as its system CLP model of sepsis in mice. As to the kind of experiment: CLP study, survival of mice treated with chito-oligomers. In kind it is in vivo. Particulars: for protection over 'Antibiotic-alone' group: intervention at 6 hours, 7 days; for survival over 7 days: intervention at 6 hours post-surgery, about 250 μg single IP dose with antibiotics, FIG. 5A. As to the method:
The CLP study with 7-9 week old C57BL/6 or BALB/c males was conducted, at animal house facility at TheraIndx Lifesciences Pvt. Ltd. (Bangalore, India) and Institute of Life Sciences (Bhubaneswar, India) respectively, in accordance with ethical practices laid down in the CPCSEA guidelines for animal care and use (CPCSEA, 2003). The Institutional Animals Ethics Committee (IAEC) of the test facility approved the studies. The CLP was performed as described before (Rittirsch et al., 2009; Toscano et al., 2011). […] About 500 μl saline was administered subcutaneously immediately after surgery. Tramadol (about 20 mg/kg) was injected subcutaneously for post-operative analgesia. […] A separate group of C57BL/6 mice received single IP dose of about 250 μg of 6-mer, 7-mer or 8-mer at either 6 hour or 24 hour post CLP. All groups except the CLP alone (control) received a single dose of standard antibiotics (amoxicillin and clavulanate) 6 hour post CLP. Control group was injected with saline solution. Total of 92 C57BL/6 and 18 BALB/c mice were used in the study.
Experimental data were analyzed using GraphPad Prism 8 (GraphPad Software, Inc.). Kruskal-Wallis test and one way ANOVA test was used for analysis of cytokines and reporter assay values. Log-rank (Mantel-Cox) test was utilized for survival analysis. P-values, P<0.05 were considered statistically significant and are denoted by […] if calculated P-values were lower than P=0.05.

The subject of another assay is CLP mice. In words: Plasma cytokine levels in CLP mice (Bio-Plex multiplex assay). The assay is classed as in vivo. As to conditions: for plasma IL-6 levels: 6 hours post intervention, versus untreated, FIG. 5C; for levels of IL-1b over time / levels of MCP-1 over time / levels of TNF-α over time: individual CLP mice, 6 hours versus 48 hours post treatment. On the procedure:
The CLP study with 7-9 week old C57BL/6 or BALB/c males was conducted, at animal house facility at TheraIndx Lifesciences Pvt. Ltd. (Bangalore, India) and Institute of Life Sciences (Bhubaneswar, India) respectively, in accordance with ethical practices laid down in the CPCSEA guidelines for animal care and use (CPCSEA, 2003). The Institutional Animals Ethics Committee (IAEC) of the test facility approved the studies. The CLP was performed as described before (Rittirsch et al., 2009; Toscano et al., 2011). Sham control mice had undergone surgery with ceacal manipulations without ligation and puncture. About 500 μl saline was administered subcutaneously immediately after surgery. Tramadol (about 20 mg/kg) was injected subcutaneously for post-operative analgesia. BALB/c mice were injected with single IP close of about 500 μg GA132 (GA is the internal code which has been used by the inventors of the present invention) while C57BL/6 mice received single IP dose of about 300 μg or about 700 μg GA132 6 hours post CLP. A separate group of C57BL/6 mice received single IP dose of about 250 μg of 6-mer, 7-mer or 8-mer at either 6 hour or 24 hour post CLP. All groups except the CLP alone (control) received a single dose of standard antibiotics (amoxicillin and clavulanate) 6 hour post CLP. Control group was injected with saline solution. Total of 92 C57BL/6 and 18 BALB/c mice were used in the study.
The Mutiplex immunoassay for Human and Mouse IL-1b, IL-6, IL-10, TNF-α and MCP-1 were purchased from Bio-Rad. For human cytokines, 1×10^6 PBMCs were seeded in 24 well plate a day before and treated with 100 ng/ml LPS or 50 μg/ml GA132 for 24 hours. The culture supernatant from three independent biological replicates was collected and used for the assay without dilution. For mice cytokines, the plasma samples from mice were collected 6 or 48 hours post treatment and diluted in PBS (Phosphate Buffered Saline) in 1:2 before assay. The assay was performed as per manufacturers' method and the beads were read and analyzed in Bio-Plex® MAGRIX™ Multiplex Reader (Bio-Rad) (https://www.bio-rad.com/webroot/web/pdg/lsr/literature/10014905.pdf).

Another assay addresses TLR2 (Homo sapiens, UniProt O60603). As to the kind of experiment: HEK-Blue TLR2 reporter assay (NF-kb and AP-1 driven SEAP). The assay is classed as cell-based. Details: host or cells: HEK293 (HEK-Blue TLR2 reporter cells). Particulars: HEK-Blue TLR2 reporter cells, 50 μg/ml. The text has this:
P1 fraction tested on reporter cell lines where TLR2, TLR4 or TLR3 is expressed in HEK293 cells and activation of the receptors is observed by NP-kB and AP-1 promoter driven SEAP enzyme secretion.
HEK-Blue TLR2, HEK-Blue TLR3 and HEK-Blue TLR4 reporter cells expressing SEAP (secreted embryonic alkaline phosphatase) enzyme under NF-kb and AP-1 promoter (Cat. no.# hkb-htlr2, hkb-htlr3 and hkb-htlr4) were purchased from InvivoGen (USA). Human Peripheral blood mononuclear cells (PBMCs) (Cat. no.# CL003-25) were purchased from Himedia laboratories (India). HEK based cells and PBMCs were cultured DMEM and RPMI media, respectively. The cells were maintained at 37° C. incubator with 5% CO2. The culture media was supplemented with 10% Fetal Calf Serum (Gibco) along with standard antibiotics. HEK-Blue selection antibiotics (InvivoGen, Cat. no.# hb-sel, ant-zn and ant-bl) were added as per manufacturers' instructions.
2×10^4 HEK-Blue reporter cells were seeded, in each well of a 96 well plate, in HEK-Blue detection media (InvivoGen, Cat. no.# hb-det3) along with the 50 μg/ml of the chito-oligomers. […] The treated cells were incubated at about 37° C. for about 16 hours and absorbance (O.D.) was measured at 620 nm in either TECAN Infinite® 200 PRO or Thermo Scientific Varioskan LUX multimode reader.
For orientation: Reporter assays use an easily measured gene product as a stand-in for the process of interest.

Setting [2] is: C57BL/6 CLP mice, single dose at 24 hours post-surgery.
Setting [3] is: CLP mice, 48 hours, versus untreated group, FIG. 5D.

Chain of TLR2 (O60603 21-784): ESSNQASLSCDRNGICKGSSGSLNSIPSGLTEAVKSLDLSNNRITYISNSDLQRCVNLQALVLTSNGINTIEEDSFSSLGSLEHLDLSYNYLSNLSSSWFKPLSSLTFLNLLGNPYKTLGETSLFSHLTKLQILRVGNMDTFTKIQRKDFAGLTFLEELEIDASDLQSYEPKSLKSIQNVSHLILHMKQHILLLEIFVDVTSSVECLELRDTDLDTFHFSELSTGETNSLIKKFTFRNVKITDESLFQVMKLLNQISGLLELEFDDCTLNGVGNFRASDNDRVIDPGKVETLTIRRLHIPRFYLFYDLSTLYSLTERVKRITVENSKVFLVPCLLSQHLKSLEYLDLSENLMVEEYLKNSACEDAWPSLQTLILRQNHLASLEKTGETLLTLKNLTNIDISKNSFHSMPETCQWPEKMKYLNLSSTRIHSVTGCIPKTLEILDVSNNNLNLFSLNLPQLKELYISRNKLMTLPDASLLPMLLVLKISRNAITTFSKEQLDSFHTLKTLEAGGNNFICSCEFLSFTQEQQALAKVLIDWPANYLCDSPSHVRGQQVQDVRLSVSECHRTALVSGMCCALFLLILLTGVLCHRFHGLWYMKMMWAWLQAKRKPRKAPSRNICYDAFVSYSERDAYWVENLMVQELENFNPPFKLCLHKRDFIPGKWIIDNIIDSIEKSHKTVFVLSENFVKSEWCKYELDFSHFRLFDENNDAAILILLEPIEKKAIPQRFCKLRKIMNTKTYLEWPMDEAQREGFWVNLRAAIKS

With `CC(=O)N[C@H]1[C@H](O[C@H]2[C@H](O)[C@@H](NC(C)=O)[C@H](O[C@H]3[C@H](O)[C@@H](NC(C)=O)C(O)O[C@@H]3CO)O[C@@H]2CO)O[C@H](CO)[C@@H](O[C@@H]2O[C@H](CO)[C@@H](O[C@@H]3O[C@H](CO)[C@@H](O[C@@H]4O[C@H](CO)[C@@H](O)[C@H](O)[C@H]4NC(C)=O)[C@H](O)[C@H]3NC(C)=O)[C@H](O)[C@H]2NC(C)=O)[C@@H]1O` (some centres unmarked) [6-mer, Hexa-N-acetyl Chitohexaose], the “protection over 'Antibiotic-alone' group” value in assay [1] (C57BL/6 CLP mice) is “no additional protection”. In assay [1] (setting [2]), the “survival compared to 'Antibiotic alone' group” value is on record as “no change”. Besides, the “plasma IL-6 levels” value with CLP mice (CLP mice) was “significant decrease”. Besides, in the assay with CLP mice, the “levels of IL-1b over time” value is reported as “no effect”, the “levels of MCP-1 over time” value is “no effect” and the “levels of TNF-α over time” value was “no effect”.

Regarding `CC(=O)N[C@H]1[C@H](O[C@H]2[C@H](O)[C@@H](NC(C)=O)[C@H](O[C@H]3[C@H](O)[C@@H](NC(C)=O)[C@H](O[C@H]4[C@H](O)[C@@H](NC(C)=O)C(O)O[C@@H]4CO)O[C@@H]3CO)O[C@@H]2CO)O[C@H](CO)[C@@H](O[C@@H]2O[C@H](CO)[C@@H](O[C@@H]3O[C@H](CO)[C@@H](O[C@@H]4O[C@H](CO)[C@@H](O)[C@H](O)[C@H]4NC(C)=O)[C@H](O)[C@H]3NC(C)=O)[C@H](O)[C@H]2NC(C)=O)[C@@H]1O` (some centres unmarked) [7-mer, Hepta-N-acetyl Chitoheptaose], the “activity in TLR2 reporter cells compared between oligomers” value at TLR2 is “significantly higher than 8-mer”. For the same molecule, the “survival over 7 days” value in assay [1] (C57BL/6 CLP mice) is on record as “around 90%”. Besides, the “survival up to 7 days” value in assay [1] (C57BL/6 CLP mice, single dose at 24 hours post-surgery, FIG. 5B) stood at 80%. The mortality entry in assay [1] (single dose of 200-250 μg 6 hours and 24 hours post-CLP, till day 7, FIG. 4) is “significant mortality reduction”. For the same molecule, the “plasma IL-6 levels” value in the assay on CLP mice (CLP mice) is “significant decrease”. In addition, in the assay on CLP mice (setting [3]), the “plasma IL-1b” value is listed as “significant reduction”, the “plasma IL-10” value is given as “significant reduction”, the “plasma MCP-1” value was “significant reduction” and the “plasma TNF-α” value is reported as “significant reduction”. Besides, in the assay with CLP mice, the “levels of IL-1b over time” value is recorded as “significant reduction”, the “levels of MCP-1 over time” value was “significant reduction” and the “levels of TNF-α over time” value is “significant reduction”.

Take `CC(=O)N[C@H]1[C@H](O[C@H]2[C@H](O)[C@@H](NC(C)=O)[C@H](O[C@H]3[C@H](O)[C@@H](NC(C)=O)[C@H](O[C@H]4[C@H](O)[C@@H](NC(C)=O)C(O)O[C@@H]4CO)O[C@@H]3CO)O[C@@H]2CO)O[C@H](CO)[C@@H](O[C@@H]2O[C@H](CO)[C@@H](O[C@@H]3O[C@H](CO)[C@@H](O[C@@H]4O[C@H](CO)[C@@H](O[C@@H]5O[C@H](CO)[C@@H](O)[C@H](O)[C@H]5NC(C)=O)[C@H](O)[C@H]4NC(C)=O)[C@H](O)[C@H]3NC(C)=O)[C@H](O)[C@H]2NC(C)=O)[C@@H]1O` (some centres unmarked) [8-mer, Octa-N-acetyl Chitooctaose]: in assay [1] (C57BL/6 CLP mice), the “survival over 7 days” value was determined as 40% and the “protection over 'Antibiotic-alone' group” value is listed as “no additional protection”. The “survival compared to 'Antibiotic alone' group” value in assay [1] (setting [2]) is “no change”. Besides, in the assay with CLP mice (CLP mice), the “plasma IL-6 levels” value is “reduced in 8-mer treated mice when compare to untreated mice but the difference was not found to be significant”. Further, in the assay with CLP mice, the “levels of IL-1b over time” value is recorded as “increase”, the “levels of MCP-1 over time” value is recorded as “increase” and the “levels of TNF-α over time” value is “increase”.

Take “amoxicillin and clavulanate [Antibiotic—alone, reference compound]”: in assay [1] (C57BL/6 CLP mice), the “survival over 7 days” value is 60%.
